Data as given in ChEMBL document CHEMBL1201862, “PubChem BioAssay data set” (2004).
Where “and” joins values, the source holds several entries; their conditions need not be identical. Identical values can stand only once.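 Exposure lasted 48 hours, with cells grown in 96-well plates and compounds tested at five concentrations. GI50: concentration for 50% inhibition of growth.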 Calls of active or inactive are those of the source. Rule as the data show it: active = GI50 up to about 1.1 µM and inactive = higher.

Assays:
Test in all cases: NCI tumour cell line growth inhibition, 48 h
[1] = system: IGROV-1
[2] = system: BT-549
[3] = system: CAKI-1
[4] = system: UO-31
[5] = system: OVCAR-4
[6] = system: SK-MEL-5
[7] = system: SK-MEL-2
[8] = system: OVCAR-3
[9] = system: HT-29
[10] = system: HL-60
[11] = system: HCC 2998
[12] = system: Malme-3M
[13] = system: HCT-116
[14] = system: MOLT-4
[15] = system: Hs-578T
[16] = system: NCI-H460
[17] = system: KM12
[18] = system: A549
[19] = system: NCI-H522

Structure (SMILES)	GI50 [1]	GI50 [2]	GI50 [3]	GI50 [4]	GI50 [5]	GI50 [6]	GI50 [7]	GI50 [8]	GI50 [9]	GI50 [10]	GI50 [11]	GI50 [12]	GI50 [13]	GI50 [14]	GI50 [15]	GI50 [16]	GI50 [17]	GI50 [18]	GI50 [19]
CCCC[C@H]1CCN2C[C@@H](O)[C@@H](O)[C@H]2[C@@H]1O	> 100 µM (inactive)	> 100 µM (inactive)	> 100 µM (inactive)	> 100 µM (inactive)	> 100 µM (inactive)	> 100 µM (inactive)	> 100 µM (inactive)	> 100 µM (inactive)	> 100 µM (inactive)	> 100 µM (inactive)	> 100 µM (inactive)	> 100 µM (inactive)	> 100 µM (inactive)	> 100 µM (inactive)	> 100 µM (inactive)	> 100 µM (inactive)	> 100 µM (inactive)	> 100 µM (inactive)	> 100 µM (inactive)
CC(C)=CC1CC(C)C2(CCC3(C)CC4C(C(=O)CC4(C)O)/C(C=O)=C\CC32)O1 (stereo not drawn)	0.144 µM (active)	0.177 µM (active)	0.0604 µM (active)	0.0355 µM (active)	0.0356 µM (active)	0.216 µM (active)	0.144 µM (active)	0.0224 µM (active)	0.0312 µM (active)	< 0.0173 µM (active)	0.178 µM (active)	0.131 µM (active)	0.0407 µM (active)	< 0.0153 µM (active)	0.13 µM (active)	0.133 µM (active)	0.102 µM (active)	0.0685 µM (active)	0.028 µM (active)
Nc1c(C(=O)O)nnc2cc(Cl)c(Cl)cc12	> 100 µM (inactive)	72.6 µM (inactive)	> 100 µM (inactive)	56.9 µM (inactive)	> 100 µM (inactive)	> 100 µM (inactive)	> 100 µM (inactive)	> 100 µM (inactive)	> 100 µM (inactive)	57 µM (inactive)	> 100 µM (inactive)	> 100 µM (inactive)	> 100 µM (inactive)	> 100 µM (inactive)	> 100 µM (inactive)	> 100 µM (inactive)	> 100 µM (inactive)	> 100 µM (inactive)	> 100 µM (inactive)
COC1OC(C(=O)CP(=O)(OC)OC)C(OCc2ccccc2)C(OCc2ccccc2)C1OCc1ccccc1 (stereo not drawn)	18.3 µM (inactive) and 18.9 µM (inactive)	17.9 µM (inactive) and 19.5 µM (inactive)	16.3 µM (inactive) and 19.6 µM (inactive)	11.2 µM (inactive) and 17.1 µM (inactive)	14.7 µM (inactive) and 20.7 µM (inactive)	14.8 µM (inactive) and 15 µM (inactive)	16.5 µM (inactive) and 17.1 µM (inactive)	15.6 µM (inactive) and 15.1 µM (inactive)	17.2 µM (inactive) and 16 µM (inactive)	21.8 µM (inactive) and 18.7 µM (inactive)	16.2 µM (inactive) and 17.3 µM (inactive)	17.9 µM (inactive) and 19.2 µM (inactive)	16.6 µM (inactive) and 15.5 µM (inactive)	13 µM (inactive) and 20.8 µM (inactive)	25.6 µM (inactive) and 22.1 µM (inactive)	15 µM (inactive) and 15.9 µM (inactive)	18.7 µM (inactive) and 18.9 µM (inactive)	15.3 µM (inactive) and 15.5 µM (inactive)	14.5 µM (inactive) and 16 µM (inactive)
COc1ccc(C2SCC(=O)N2c2ccc(-c3ccc(-n4c(-c5ccccc5)nc5ccccc5c4=O)cc3)cc2)cc1 (stereo not drawn)	62.2 µM (inactive)	22.8 µM (inactive)	95.3 µM (inactive)	> 100 µM (inactive)	42.4 µM (inactive)	26.9 µM (inactive)	26.6 µM (inactive)	17.5 µM (inactive)	12.7 µM (inactive)	54.3 µM (inactive)	30.1 µM (inactive)	48.2 µM (inactive)	57.9 µM (inactive)	31.8 µM (inactive)	25.9 µM (inactive)	34.4 µM (inactive)	21.1 µM (inactive)	> 100 µM (inactive)	30.3 µM (inactive)
COc1ccc(C(C#N)NC23CC4CC(CC(C4)C2)C3)cc1 (stereo not drawn)	> 100 µM (inactive)	> 100 µM (inactive)	> 100 µM (inactive)	> 100 µM (inactive)	> 100 µM (inactive)	> 100 µM (inactive)	> 100 µM (inactive)	> 100 µM (inactive)	> 100 µM (inactive)	88.5 µM (inactive)	> 100 µM (inactive)	> 100 µM (inactive)	> 100 µM (inactive)	> 100 µM (inactive)	> 100 µM (inactive)	> 100 µM (inactive)	> 100 µM (inactive)	> 100 µM (inactive)	> 100 µM (inactive)
COC(=O)c1cc(NC(=O)Cc2c[nH]c3ccccc23)cn1C	22.5 µM (inactive)	57.5 µM (inactive)	> 100 µM (inactive)	23.6 µM (inactive)	40.4 µM (inactive)	70.3 µM (inactive)	81.7 µM (inactive)	> 100 µM (inactive)	65.9 µM (inactive)	> 100 µM (inactive)	68.1 µM (inactive)	57.7 µM (inactive)	71.4 µM (inactive)	43.2 µM (inactive)	33.7 µM (inactive)	70.5 µM (inactive)	> 100 µM (inactive)	70.5 µM (inactive)	36.1 µM (inactive)
